We go through 20 molecules from US20250059159A1, “PLPRO INHIBITORS” (SHANGHAI SYNERGY PHARMACEUTICAL SCIENCES CO., LTD., priority 2021, published 2025).

One may read the IC50 as the point on the concentration scale where inhibition reaches its midpoint.

The target in the assay is SARS-CoV-2 PLpro (Severe acute respiratory syndrome coronavirus 2 (2019-nCoV) (SARS-CoV-2), UniProt P0DTD1). Kind of assay: PLpro enzymatic inhibition assay (IC50 value determination). Type of assay: biochemical. Particulars: 60 min preincubation for covalent inhibitors, 10 min for non-covalent, read-out: Inhibition of SARS-CoV-2 PLpro IC50 range.

Regarding `COC(=O)/C=C/CNC(=O)CNC(=O)CN(C(=O)CC(C)C)C1CCN([C@H](C)c2cccc3ccccc23)CC1` [Compound 19, methyl (R,E)-4-(2-(2-(3-methyl-N-(1-(1-(naphthalen-1-yl)ethyl)piperidin-4-yl)butanamido)acetamido)acetamido)but-2-enoate], the half-inhibitory concentration (IC50) is less than 100 nM. As for `C#CCNC(=O)CNC(=O)CN(C1CCN(C(C)c2cccc(OC)c2Cl)CC1)S(C)(=O)=O` (centres unmarked) [Compound 123, 2-(N-(1-(1-(2-chloro-3-methoxyphenyl)ethyl)piperidin-4-yl)methylsulfonamido)-N-(2-oxo-2-(prop-2-yn-1-ylamino)ethyl)acetamide], the figure is 100 to 1000 nM. Consider `COC(=O)/C=C/CNC(=O)CNC(=O)CN(C(=O)C(F)(F)F)C1CCN([C@H](C)c2cccc3ccccc23)CC1` [Compound 14, methyl (R,E)-4-(2-(2-(2,2,2-trifluoro-N-(1-(1-(naphthalen-1-yl)ethyl)piperidin-4-yl)acetamido)acetamido)acetamido)but-2-enoate], for which the IC50 is 100 to 1000 nM. As for `COC(=O)/C=C/CNC(=O)CNC(=O)CN(C(=O)C1CCCCC1)C1CCN([C@H](C)c2cccc3ccccc23)CC1` [Compound 11, methyl (R,E)-4-(2-(2-(N-(1-(1-(naphthalen-1-yl)ethyl)piperidin-4-yl)cyclohexanecarboxamido)acetamido)acetamido)but-2-enoate], the figure is 100 to 1000 nM; as for `COC(=O)/C=C/CNC(=O)CNC(=O)CN(C(=O)Cc1ccccc1)C1CCN(C(C)c2cccc3ccccc23)CC1` (centres unmarked) [Compound 4, methyl (E)-4-(2-(2-(N-(1-(1-(naphthalen-1-yl)ethyl)piperidin-4-yl)-2-phenylacetamido)acetamido)acetamido)but-2-enoate], 100 to 1000 nM. As for `COC(=O)/C=C/CNC(=O)CNC(=O)C[C@H](NCc1ccc2c(c1)OCO2)C1CCN(C(C)c2cccc3ccccc23)CC1` (stereo partly drawn) [Compound 29, methyl (E)-4-(2-((3S)-3-((benzo[d][1,3]dioxol-5-ylmethyl)amino)-3-(1-(1-(naphthalen-1-yl)ethyl)piperidin-4-yl)propanamido)acetamido)but-2-enoate], the figure is 100 to 1000 nM; as for `COC(=O)/C=C/CNC(=O)CNC(=O)CN(C(=O)Cc1cccc(F)c1)C1CCN([C@H](C)c2cccc3ccccc23)CC1` [Compound 3, methyl (R,E)-4-(2-(2-(2-(3-fluorophenyl)-N-(1-(1-(naphthalen-1-yl)ethyl)piperidin-4-yl)acetamido)acetamido)acetamido)but-2-enoate], 100 to 1000 nM; as for `COC(=O)/C=C/CNC(=O)CNC(=O)CN(C(=O)C1CCC1)C1CCN(C(C)c2cccc3ccccc23)CC1` (centres unmarked) [Compound 6, methyl (E)-4-(2-(2-(N-(1-(1-(naphthalen-1-yl)ethyl)piperidin-4-yl)cyclobutanecarboxamido)acetamido)acetamido)but-2-enoate], less than 100 nM. As for `CC(c1cccc2ccccc12)N1CCC(N(CC(=O)NCC(=O)NC/C=C/S(C)(=O)=O)C(=O)C2CCC2)CC1` (centres unmarked) [Compound 9, (E)-N-(2-((2-((3-(methylsulfonyl)allyl)amino)-2-oxoethyl)amino)-2-oxoethyl)-N-(1-(1-(naphthalen-1-yl)ethyl)piperidin-4-yl)cyclobutanecarboxamide], the figure is 100 to 1000 nM. Turning to `C#CCNC(=O)CNC(=O)CN(C1CCN([C@H](C)c2cccc3ccccc23)CC1)S(=O)(=O)N1CCC(C(N)=O)C1` (stereo partly drawn) [Compound 137, 1-(N-(1-((R)-1-(naphthalen-1-yl)ethyl)piperidin-4-yl)-N-(2-oxo-2-((2-oxo-2-(prop-2-yn-1-ylamino)ethyl)amino)ethyl)sulfamoyl)pyrrolidine-3-carboxamide], the IC50 was less than 100 nM. On to `C#CCNC(=O)CNC(=O)[C@@H]1CNS(=O)(=O)N1C1CCN([C@H](C)c2cccc3ccccc23)CC1` [Compound 92, (S)-2-(1-((R)-1-(naphthalen-1-yl)ethyl)piperidin-4-yl)-N-(2-oxo-2-(prop-2-yn-1-ylamino)ethyl)-1,2,5-thiadiazolidine-3-carboxamide 1,1-dioxide 2,2,2-trifluoroacetate], for which the IC50 is 1000 to 10000 nM. `COC(=O)/C=C/CNC(=O)CNC(=O)CN(C(=O)C(C)C)C1CCN([C@H](C)c2cccc3ccccc23)CC1` [Compound 17, methyl (R,E)-4-(2-(2-(N-(1-(1-(naphthalen-1-yl)ethyl)piperidin-4-yl)isobutyramido)acetamido)acetamido)but-2-enoate]: the IC50 fell in the range of 100 to 1000 nM. As for `[2H]C([2H])(C#C)NC(=O)CNC(=O)CN(C1CCN(C(C)c2cccc3ccccc23)CC1)S(C)(=O)=O` (stereo not drawn) [Compound 153, 2-(N-(1-(1-(naphthalen-1-yl)ethyl)piperidin-4-yl)methylsulfonamido)-N-(2-oxo-2-((prop-2-yn-1-yl-1,l-d2)amino)ethyl)acetamide], the figure is less than 100 nM. As for `CCC(=O)N(CC(=O)NCC(=O)NC/C=C/C(=O)OC)C1CCN(C(C)c2cccc3ccccc23)CC1` (centres unmarked) [Compound 15, methyl (E)-4-(2-(2-(N-(1-(1-(naphthalen-1-yl)ethyl)piperidin-4-yl)propionamido)acetamido)acetamido)but-2-enoate], the figure is less than 100 nM. `C#CCNC(=O)CNC(=O)CN(C1CCN(C(CO)c2cccc3ccccc23)CC1)S(C)(=O)=O` (centres unmarked) [Compound 143, 2-(N-(1-(2-hydroxy-1-(naphthalen-1-yl)ethyl)piperidin-4-yl)methylsulfonamido)-N-(2-oxo-2-(prop-2-yn-1-ylamino)ethyl)acetamide]: the half-maximal inhibitory concentration (IC50) lay in the range of 1000 to 10000 nM.

Consider `COC(=O)/C=C/CNC(=O)CNC(=O)CN(C(=O)Cc1ccc2c(c1)OCO2)C1CCN(C(C)c2cccc3ccccc23)CC1` (centres unmarked) [Compound 1, methyl (E)-4-(2-(2-(2-(benzo[d][1,3]dioxol-5-yl)-N-(1-(1-(naphthalen-1-yl)ethyl)piperidin-4-yl)acetamido)acetamido)acetamido)but-2-enoate], for which the half-maximal inhibitory concentration (IC50) is 100 to 1000 nM. Take `CC(c1cccc2ccccc12)N1CCC(N(CC(=O)NCC(=O)NCC#N)S(C)(=O)=O)CC1` (centres unmarked) [Compound 114, N-(cyanomethyl)-2-(2-(N-(1-(1-(naphthalen-1-yl)ethyl)piperidin-4-yl)methylsulfonamido)acetamido)acetamide]: the IC50 lay within 1000 to 10000 nM. As for `C#CCNC(=O)CNC(=O)CN(C1CCN([C@H](C)c2cccc3ccccc23)CC1)S(N)(=O)=O` [Compound 145, (R)-2-((1-(1-(naphthalen-1-yl)ethyl)piperidin-4-yl)(sulfamoyl)amino)-N-(2-oxo-2-(prop-2-yn-1-ylamino)ethyl)acetamide 2,2,2-trifluoroacetate], the figure is less than 100 nM. With `COC(=O)/C=C/CNC(=O)CNC(=O)CNC1CCN([C@H](C)c2cccc3ccccc23)CC1` [Compound 24, methyl (R,E)-4-(2-(2-((1-(1-(naphthalen-1-yl)ethyl)piperidin-4-yl)amino)acetamido)acetamido)but-2-enoate], the IC50 lay in the range of 100 to 1000 nM. As for `CCCC(=O)N(CC(=O)NCC(=O)NC/C=C/C(=O)OC)C1CCN([C@H](C)c2cccc3ccccc23)CC1` [Compound 18, methyl (R,E)-4-(2-(2-(N-(1-(1-(naphthalen-1-yl)ethyl)piperidin-4-yl)butyramido)acetamido)acetamido)but-2-enoate], the figure is less than 100 nM.
